Experimental data published in patent US20130045988A1, “COMBINATION THERAPY” (SHIRE AG, priority 2011, published 2013).
Where “and” joins values, the source holds several entries; their conditions need not be identical. Equal values may be shown once. Entries after “also recorded” stand apart in the source; their conditions may differ. Read-outs that look alike come from different tables or passages of the source.

How the values were obtained:
[1] = tested on: cholinergic neurons innervating pig gastric circular muscle; assay: EFS-induced acetylcholine release (total radioactivity/tritium outflow) from pig gastric circular muscle strips
[2] = tested on: pig gastric circular muscle strips; assay: EFS-induced submaximal cholinergic contractions of gastric circular muscle strips
[3] = tested on: pig colon descendens circular muscle; assay: EFS-induced submaximal cholinergic contractions of colon circular muscle strips; conditions: for influence on the facilitating effect of prucalopride on cholinergic neurotransmission: PDE inhibitor before prucalopride, data not shown; for effect on EFS-induced cholinergic contractions: cumulative half log unit increasing concentrations, IBMX effect range 1-30 μM
Experimental: Young male pigs (10-12 weeks, 15-25 kg-breed Line 36) were obtained from […], Belgium. On the morning of the experiment, pigs were anaesthetized with an intramuscular injection of 5 ml Zoletil 100 (containing 50 mg/ml tiletamine and 50 mg/ml zolazepam; Virbac Belgium S.A., Belgium). […] The aerated (5% CO2/95% O2) Krebs-Henseleit solution in the organ baths (see example 11) systematically contained 4 μM of the noradrenergic neuron blocker guanethidine and 0.3 mM of the NO synthase inhibitor Nω-nitro-L-arginine methyl ester hydrochloride (L-NAME) to avoid noradrenergic and […] responses respectively. After 60 min of stabilization with refreshing of the Krebs-Henseleit solution every 15 min, strips were contracted with the muscarinic receptor agonist carbachol (3 μM). This procedure was repeated with a 20-min washout period in between. […] NK3, 0.3 μM SB222200) were added and incubated for 30 min before the first electrical stimulation. […] Strips were then stimulated for 1 hour (12 stimulations) with 5 min interval at supramaximal voltage (35 V) (10 s trains; 0.25 ms pulse duration; frequency of 4 Hz). […] The protocols as described in examples 12 and 13 then started. […] Changes in isometric tension were measured using MLT 050/D force transducers (ADInstruments, United Kingdom) and recorded on a PowerLab/8sp data recording system (ADInstruments, United Kingdom) with Chart v5.5.6 software. The obtained data were analysed as follows: […] Results are expressed as means±S.E.M., n referring to tissues from different animals except when otherwise indicated. Statistical analysis was performed by use of Graphpad Prism […]<0.05 was considered statistically significant. When adding PDE inhibitors cumulatively, the last contraction in the presence of each concentration was compared to the reference by repeated measures ANOVA followed by a Bonferroni corrected t-test. […] A cumulative concentration-response curve for the different PDE inhibitors was obtained by adding them in half log unit increasing concentrations, starting after 5 reproducible contractions at V50% had been obtained and registering the responses to 6 trains (30 min) after adding each concentration. Parallel to the cumulative concentration-response curve of rolipram, an isolated concentration-response curve was obtained by adding one single concentration per tissue in 3 animals. […] The solvents DMSO and ethanol were tested separately by adding them cumulatively in the matching dilutions as for the cumulative concentration series of the corresponding PDE inhibitor.

PDE = conditions: Beavo and Reifsnyder, 1990; read-out: IC50 range; cited from earlier work
[4] = prucalopride 0.03, 0.1 or 0.3 μM

## CCCCCC[C@@H]([C@@H](C)O)n1cnc2c(N)ncnc21 (racemic) [EHNA]
[1]; 10 μM EHNA alone
  S2/S1 ratio of EFS-induced total radioactivity outflow: 0.51±0.05
[1]; PDE inhibitor alone, 10 μM
  influence on basal tritium outflow: did not influence basal
[2]; 1-30 μM
  influence on submaximal cholinergic contractions: did not significantly influence the submaximal cholinergic contractions
[3]
  influence on the facilitating effect of prucalopride on cholinergic neurotransmission: did not influence the facilitating effect of prucalopride on cholinergic neurotransmission

## Cn1cc(C(=O)OCC2CCN(CCNS(C)(=O)=O)CC2)c2ccccc21 [GR113808]
[1]; 1 nM GR113808 added 21 min before 0.3 μM prucalopride
  S2, EFS-induced outflow of total radioactivity above baseline: 43860 ± 4122 dpm g^−1 tissue
[1]; 1 nM GR113808 followed by 0.3 μM prucalopride
  S2/S1 ratio of EFS-induced total radioactivity outflow: 1.05 ± 0.08
[1]; 10 nM GR113808 added 21 min before 0.3 μM prucalopride
  S2, EFS-induced outflow of total radioactivity above baseline: 39273 ± 9533 dpm g^−1 tissue
[1]; 10 nM GR113808 followed by 0.3 μM prucalopride
  S2/S1 ratio of EFS-induced total radioactivity outflow: 0.86 ± 0.04
[1]; 100 nM GR113808 added 21 min before 0.3 μM prucalopride
  S2, EFS-induced outflow of total radioactivity above baseline: 47590 ± 8293 dpm g^−1 tissue
[1]; 100 nM GR113808 followed by 0.3 μM prucalopride
  S2/S1 ratio of EFS-induced total radioactivity outflow: 0.74 ± 0.05
[1]; GR113808 1, 10, 100 nM
  influence on basal tritium outflow: did not influence basal tritium outflow
[1]; GR113808 1, 10, 100 nM versus 0.3 μM prucalopride
  influence on the facilitating effect of prucalopride on EFS-induced acetylcholine release: concentration-dependently antagonized the facilitating effect of 0.3 μM prucalopride
[1]; first stimulation S1, before drugs, tissues given 1 nM GR113808 then 0.3 μM prucalopride
  S1, EFS-induced outflow of total radioactivity above baseline: 42314 ± 3744 dpm g^−1 tissue
[1]; first stimulation S1, before drugs, tissues given 10 nM GR113808 then 0.3 μM prucalopride
  S1, EFS-induced outflow of total radioactivity above baseline: 45180 ± 10235 dpm g^−1 tissue
[1]; first stimulation S1, before drugs, tissues given 100 nM GR113808 then 0.3 μM prucalopride
  S1, EFS-induced outflow of total radioactivity above baseline: 49850 ± 8210 dpm g^−1 tissue
[2]; GR113808 1, 10 and 100 nM
  influence per se on EFS-induced contractions: did not influence the EFS-induced contractions
[2]; GR113808 1, 10 and 100 nM versus 0.3 μM prucalopride
  influence on the facilitating effect of prucalopride on EFS-induced contractions: concentration-dependently inhibited the facilitating effect of 0.3 μM prucalopride

## CC(C)Cn1c(=O)n(C)c(=O)c2[nH]cnc21 [IBMX, 3-isobutyl-1-methyl-xanthine]
[1]; IBMX 10 μM alone
  influence on EFS-induced tritium outflow: nor did it influence EFS-induced tritium outflow; also recorded: did not significantly influence EFS-induced tritium outflow
[1]; PDE inhibitor alone, 10 μM
  influence on basal tritium outflow: did not influence basal
[2]; 3 μM IBMX, piglets
  EFS-induced contractions decreased maximally to % of response before: 84±2%
[2]; 30 μM IBMX
  effect on EFS-induced cholinergic contractions: nearly abolished
[2]; IBMX, half log unit ascending concentrations
  effect on amplitude of the EFS-induced cholinergic contractions: concentration-dependent reduction of the amplitude of the EFS-induced cholinergic contractions from 3 μM onwards
[3]
  effect on EFS-induced cholinergic contractions: concentration-dependently inhibited EFS-induced cholinergic contractions
PDE
  IC50: 2 to 50 µM

## CN1[C@@H]2CC[C@H]1C[C@@H](OC(=O)C(CO)c1ccccc1)C2 (some centres unmarked) [atropine]
[2]
  effect on EFS-induced contractions at V50% C: abolished

## CN(C(=O)CCCOc1ccc2[nH]c(=O)ccc2c1)C1CCCCC1 [cilostamide]
[1]; PDE inhibitor alone, 1 μM
  influence on basal tritium outflow: None of these PDE-inhibitors alone influenced basal tritium outflow
[2]; 1 μM cilostamide alone
  contraction at the 10th stimulation train, % of the response before: 59±13%
[2]; Sus scrofa, 3 μM cilostamide, maximal depression, read-out: EFS-induced contraction, reduction to % of response before PDE-inhibitor
  activity at 3 µM: 68 ± 11%
[2]; cilostamide 0.01-10 μM
  influence on submaximal cholinergic contractions: reduced the contractions from 0.1 μM onwards
[3]
  potency versus IBMX in inhibiting EFS-induced cholinergic contractions: about 100 times
  effect on EFS-induced cholinergic contractions: concentration-dependently inhibited EFS-induced cholinergic contractions
[3]; Sus scrofa, 0.03 μM cilostamide
  inhibition at 0.03 µM: 75%

## COCCCN1CCC(NC(=O)c2cc(Cl)c(N)c3c2OCC3)CC1 [prucalopride, 4-amino-5-chloro-2,3-di-hydro-N-[r-(3-methoxypropyl)-4-piperidinyl]-7-benzo-furan-carboxamide]
[1]
  S1, EFS-induced outflow of total radioactivity above baseline: 68328 ± 11006 dpm g^−1 tissue and 91698 ± 24563 dpm g^−1 tissue and 61343 ± 11445 dpm g^−1 tissue and 50543 ± 3791 dpm g^−1 tissue
[1]; 0.03 μM prucalopride added 15 min before S2
  S2, EFS-induced outflow of total radioactivity above baseline: 62398 ± 8272 dpm g^−1 tissue
[1]; 0.03 μM prucalopride alone
  influence on EFS-induced tritium outflow: enhanced EFS-induced tritium outflow
[1]; 0.1 μM prucalopride added 15 min before S2
  S2, EFS-induced outflow of total radioactivity above baseline: 91877 ± 21668 dpm g^−1 tissue
[1]; 0.3 μM prucalopride added 15 min before S2
  S2, EFS-induced outflow of total radioactivity above baseline: 61498 ± 9813 dpm g^−1 tissue and 52591 ± 2950 dpm g^−1 tissue
[1]; prucalopride 0.03, 0.1 and 0.3 μM
  influence on basal tritium outflow: did not influence the basal outflow
[2]; 0.01 μM prucalopride alone
  electrically induced contractions, % of mean of 5 contractions before: 162±11%
[2]; 0.03 μM prucalopride alone
  electrically induced contractions, % of mean of 5 contractions before: 171±15%
[2]; 0.1 μM prucalopride alone
  electrically induced contractions, % of mean of 5 contractions before: 206±10%
[2]; [4]
  effect on amplitude of the EFS-induced contractions: progressively enhanced the amplitude of the EFS-induced contractions
  influence on basal tone of the strips: did not influence the basal tone of the strips
[3]; 1 μM prucalopride
  effect on EFS-induced cholinergic submaximal contractions: systematically enhanced EFS-induced cholinergic submaximal contractions

## O=C(Nc1c(Cl)cncc1Cl)c1ccc(OC(F)F)c(OCC2CC2)c1 [roflumilast]
[1]; 0.3 μM roflumilast alone, 36 min before S2
  S2/S1 ratio of EFS-induced total radioactivity outflow: 0.85±0.02

## COc1ccc(C2CNC(=O)C2)cc1OC1CCCC1 (centres unmarked) [rolipram]
[1]; PDE inhibitor alone, 1 μM
  influence on basal tritium outflow: None of these PDE-inhibitors alone influenced basal tritium outflow
[2]; 1 μM rolipram alone, before adding prucalopride, three tissue groups
  mean contractile response to the 10th stimulation train, % of response before administration: 114±8% and 115±8% and 122±9%
[2]; 1 μM rolipram alone, single tissues of the group later given 0.03 μM prucalopride
  individual contractile response to the 10th stimulation, % of response before administration: 96% and 111% and 137% and 155% and 93% and 102% and 101% and 128%
[2]; 1-30 μM
  influence on submaximal cholinergic contractions: did not significantly influence the submaximal cholinergic contractions
[3]; 3 μM rolipram, before prucalopride is added
  effect on EFS-induced contractions: did not enhanced the EFS-induced contractions
[3]; 0.1 and 0.3 μM rolipram
  effect on EFS-induced contractions: significant increase of the EFS-induced contractions

## NC1=N[C@H](O)[C@H]2[C@H]3O[C@]4(O)O[C@@H]([C@@H](O)[C@@]2(N1)[C@@H]4O)[C@]3(O)CO [tetrodotoxin]
[2]
  effect on EFS-induced contractions at V50% C: abolished

## CC(C)n1c(=O)c(C(=O)N[C@H]2C[C@H]3CC[C@@H](C2)N3C[C@@H](O)CN(C)S(C)(=O)=O)cc2ccccc21 [velusetrag]
[1]
  S2/S1 ratio of EFS-induced total radioactivity outflow: 0.7±0.03

## CCOC(=O)C1=C[C@]2(CC)CCCN3CCc4c(n1c1ccccc41)[C@@H]32 [vinpocetine]
[1]; PDE inhibitor alone, 10 μM
  influence on basal tritium outflow: None of these PDE-inhibitors alone influenced basal tritium outflow
[2]; vinpocetine 0.01-10 μM
  influence on submaximal cholinergic contractions: did not significantly influence the submaximal cholinergic contractions
[3]
  influence on the facilitating effect of prucalopride on cholinergic neurotransmission: did not influence the facilitating effect of prucalopride on cholinergic neurotransmission
